Experimental data published in patent publication US10034839B2, “Compositions and methods for delivery of kinase inhibiting peptides” (PURDUE RESEARCH FOUNDATION, priority 2012, dated 2018).
Values belong to the compound of their own block, whether it stands above or below them.

Experiments:
[1] = KAFAK degradability assay in serum; format: in vitro ADME; conditions: for recovery at 12 hours / Integral of KAFAK Peak between 30-31% Acetonitrile: 12 hours at 37° C., then 24 hours at 4° C. (nanoparticles: purify & release in 2x salt)
Description: Samples tested include: peptide alone, serum alone, peptide in serum, and KAFAK loaded 5% AMPS nanoparticles in serum. Each sample volume also contained 0.5× PBS except when stated. Samples containing peptide initially contained 0.5 mg of peptide alone or 1.12 mg of loaded 5% AMPS particles with an equivalent amount of 0.5 mg peptide. Samples with serum were 0.5× serum and 0.5×PBS. Samples without serum were 0.5×PBS and 0.5× MilliQ water. Peptide alone, serum alone, peptide in serum, loaded nanoparticles alone, and loaded nanoparticles in serum were incubated for 12 hours at 37° C. on a shaker. After the 12 hour incubation, samples not containing nanoparticles were placed in the fridge at 4° C. for 24 hours before evaluation. Samples containing nanoparticles were centrifuged for 2 hours at room temperature at 30,000 rpm in an Optima L-90k Ultracentrifuge (Beckman Coulter, Indianapolis, Ind., USA). The nanoparticle pellet was briefly washed with MilliQ water and then resuspended in solution of 0.5×PBS and 0.5× MilliQ water. Samples were then placed in the fridge for 24 hours. Before the 24 hour nanoparticle sample was placed in the fridge to incubate, but after the pellet was dissolved, an additional amount of 0.257 molar concentration of NaCl was added to induce peptide release. This brought the final NaCl concentration to 0.342 molar or twice normal salt concentration in PBS. Additional NaCl was added to facilitate total release by introducing additional counter ions. Samples were evaluated by reverse phase chromotography on a FPLC (AKTA Explorer, GE Healthcare, Pittsburgh Pa., USA) with a 22/250 C18 prep-scale column (Grace Davidson, Deerfield, Ill., USA) and an acetonitrile gradient with 0.1% trifluoroacetic acid. Peptide was quantified by integrating the area under the peak of the FPLC. Peptide molecular weight was confirmed by time of flight MALDI mass spectrometry with a 4800 Plus MALDI TOF/TOF Analyzer (Applied Biosystems, Foster City, Calif., USA).

[2] = test system: IL-6 production in cartilage plugs; test: IL-6 ELISA in bovine knee ex vivo inflammatory model; conditions: IL-1β stimulated aggrecan depleted plugs, treatment every two days
Description: Cartilage plugs were obtained from three month old bovine knee joints obtained from an abattoir within 24 hours of slaughter (Dutch Valley Veal, South Holland, Ill., USA). The plugs were removed from the load bearing region of the femoral condyle using a 3 mm diameter cork borer. They were then washed three times in serum free medium and equilibrated for three days in 5% FBS supplemented media. Osteoarthritis (OA)-like conditions were simulated by removal of native aggrecan using a previously described protocol. Briefly, plugs were treated with 0.5% (w/v) trypsin in HBSS for 3 hours at 37° C. After trypsin treatment plugs were washed three times in HBSS and incubated with 20% FBS to inactivate residual trypsin activity. Inflammation was initiated in the plugs by treating with 20 ng/mL II-1β. Nanoparticle treatments as specified in Table 1, were added after day two of culture. Fresh IL-1β and nanoparticles were added every two days for an eight day culture period. Media aliquots were collected and stored in −80° C. till further analysis.
IL-6 production was determined with a bovine IL-6 ELISA development kit (Thermo Scientific, Rockford, Ill., USA). Capture antibody was coated overnight onto Nunc MaxiSorp 96-well plates. […] The plate was read on absorbance plate reader at 450 nm with a correction at 550 nm. […]

[3] = previously reported; cited from earlier work
[4] = test system: THP-1 cells; conditions: THP1; corresponds to 60 μg dose of loaded particles; cited from earlier work
[5] = test system: citrated bovine whole blood; test: Activated partial thromboplastin time (whole blood coagulation time); conditions: for Whole Blood Coagulation Time (s) Average (n = 3): nanoparticles 1.5 mg/ml final concentration in blood, collagen 6 mg/ml, heparin .001 mg/ml; for effect on coagulation: whole blood, nanoparticles 1.5 mg/ml
Description: Activated partial thromboplastin time (aPTT) was measured using a Hemochron® Response whole blood coagulation system. 2 ml citrated bovine whole blood and 200 μL nanoparticles in phosphate buffered saline (PBS) pH 7.4 (1.5 mg/ml final concentration in blood) were added to Hemochron® tubes containing colloidal kaolin activating agent and 0.02% thimerosal preservative agent. PBS was calcium and magnesium free. The tubes were then measured and aPTT was recorded. The aPTT for each sample was measured in triplicate. […] Louis, Mo., USA). Measurements with heparin were stopped after 1000 seconds.
As part of a preliminary assessment of utilizing poly(NIPAm-MBA-AMPS) as a blood contacting drug delivery vehicle, whole blood studies were done to determine the hemocompatibility of this system.

[6] = test system: blood; test: Hemolysis assay ASTM F756; format: cell-based; conditions: nanoparticles 1.5 mg/ml, 37° C., 3 hours; Triton X-100 .01% by volume
Description: After 1000 seconds, experiments in the presence of heparin were stopped due to lack of clotting. Hemolytic assay ASTM standard protocol F756 was used to check if hemolysis occurred upon the addition of poly(NIPAm-MBA-AMPS) to the blood.
Hemolysis assays were performed following ASTM F756 with a BioSpec-1601 spectrophotometer (Shimadzu, Columbia, Md., USA). Determination of total blood hemoglobin was accomplished by using Drabkin's reagent and measuring the absorbance of free hemoglobin in solution at 540 nm. The total blood hemoglobin concentration was used to adjust the hemoglobin content of the blood sample to 10 mg±1 mg by adding blood and an equivalent amount of IX PBS solution. Percent hemolysis was normalized by dividing total hemolysis determined by a 0.01% v/v of Triton X-100, subtracting the absorbance of blood only, and setting absorbance of PBS to zero. Blood, 1 ml, was incubated with 100 μl of a 1.5 mg/ml solution of the nanoparticles in PBS at 37° C. for three hours under gentle shaking. After three hours samples were centrifuged at 750 g for 15 minutes. Supernatant was removed, added 1:1 to equivalent volume of Drabkins reagent, and incubated for 15 minutes before measurement. Absorbance measurements at 540 nm were then recorded using a spectrophotometer.

recovery at 12 hours ([1]; 0.5× PBS and 0.5× MilliQ water (without serum), without serum): 100%
Integral of KAFAK Peak between 30-31% Acetonitrile ([1]; in serum): 0 mAU * ml
recovery at 12 hours ([1]; in serum): 0%
time within which KAFAK peptide degraded ([1]; serum, 37° C., without a carrier): ≤ 12 h
Integral of KAFAK Peak between 30-31% Acetonitrile ([1]; without serum): 593.3 mAU * ml
Compound: CC(C)C[C@H](NC(=O)[C@H](C)NC(=O)[C@H](CCCCN)NC(=O)[C@H](CCCNC(=N)N)NC(=O)[C@H](Cc1ccc(O)cc1)NC(=O)[C@H](CC(C)C)NC(=O)[C@H](CCCNC(=N)N)NC(=O)[C@H](C)NC(=O)[C@H](C)NC(=O)[C@H](CC(C)C)NC(=O)[C@H](CCCCN)NC(=O)[C@H](C)NC(=O)[C@H](Cc1ccccc1)NC(=O)[C@H](C)NC(=O)[C@@H](N)CCCCN)C(=O)N[C@@H](C)C(=O)N[C@@H](CCCNC(=N)N)C(=O)N[C@@H](CCC(N)=O)C(=O)N[C@@H](CC(C)C)C(=O)NCC(=O)N[C@H](C(=O)N[C@@H](C)C(=O)N[C@@H](C)C(N)=O)C(C)C [KAFAK]
effect on IL-6 production [2]: lack of therapeutic activity
serum half-life [3]: less than 12 hours
upper toxicity limit [4]: 30 µM

Compound: Collagen
Whole Blood Coagulation Time (s) Average (n = 3) [5]: 26 s
effect on coagulation [5]: induce clotting

Whole Blood Coagulation Time (s) Average (n = 3) [5]: >1000 s
effect on coagulation [5]: inhibit coagulation
Compound: Heparin

Compound: Triton X-100
Normalized Whole Blood % Hemolysis Average (n = 3) [6]: 100%
